Experimental data reported in PMC10175918 (Communications Biology, 2023).
Entries after “also recorded” stand apart in the source; their conditions may differ. Like-named read-outs stand apart in the source and are kept apart here.

Experiments:
Assay in all cases: TGFα-shedding assay-based GPCR screening with chimeric Gα subunit proteins
Format in all cases: cell-based
[1] = biological target: T1, 348 GPCRs (Homo sapiens, UniProt Q96RI8); settings: 10µM, Favipiravir 100μM
T1 construct: expressed in transfected cells; host or cells: HEK293A
T1 sequence (Q96RI8 1-345): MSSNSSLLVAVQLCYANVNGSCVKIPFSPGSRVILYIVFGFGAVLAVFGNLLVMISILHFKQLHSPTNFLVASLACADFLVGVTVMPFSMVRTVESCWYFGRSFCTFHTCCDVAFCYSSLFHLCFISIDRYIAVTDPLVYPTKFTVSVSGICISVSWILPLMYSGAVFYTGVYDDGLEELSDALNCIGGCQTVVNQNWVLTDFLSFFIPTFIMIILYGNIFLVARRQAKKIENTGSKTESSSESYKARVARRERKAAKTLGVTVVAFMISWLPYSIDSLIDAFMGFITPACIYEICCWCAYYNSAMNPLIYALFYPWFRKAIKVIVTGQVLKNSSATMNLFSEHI

[2] = biological target: 348 GPCRs (Homo sapiens, UniProt P25021); settings: 10µM, Favipiravir 100μM
[3] = biological target: T2, 348 GPCRs (Homo sapiens, UniProt P25025)
T2 sequence (P25025 1-360): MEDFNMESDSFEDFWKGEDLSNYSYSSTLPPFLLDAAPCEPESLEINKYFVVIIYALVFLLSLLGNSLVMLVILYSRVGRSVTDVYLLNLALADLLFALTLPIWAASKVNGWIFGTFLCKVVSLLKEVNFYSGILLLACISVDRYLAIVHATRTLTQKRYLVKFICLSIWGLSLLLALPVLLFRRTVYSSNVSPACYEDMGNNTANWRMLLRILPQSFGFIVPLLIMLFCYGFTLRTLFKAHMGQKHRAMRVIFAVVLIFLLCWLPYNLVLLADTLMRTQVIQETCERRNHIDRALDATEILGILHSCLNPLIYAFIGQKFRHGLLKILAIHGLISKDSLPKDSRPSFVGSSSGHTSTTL

[4] = biological target: T3, 348 GPCRs (Homo sapiens, UniProt Q96RJ0); settings: 10µM, Favipiravir 100μM
T3 construct: expressed in transfected cells; host or cells: HEK293A
T3 sequence (Q96RJ0 1-339): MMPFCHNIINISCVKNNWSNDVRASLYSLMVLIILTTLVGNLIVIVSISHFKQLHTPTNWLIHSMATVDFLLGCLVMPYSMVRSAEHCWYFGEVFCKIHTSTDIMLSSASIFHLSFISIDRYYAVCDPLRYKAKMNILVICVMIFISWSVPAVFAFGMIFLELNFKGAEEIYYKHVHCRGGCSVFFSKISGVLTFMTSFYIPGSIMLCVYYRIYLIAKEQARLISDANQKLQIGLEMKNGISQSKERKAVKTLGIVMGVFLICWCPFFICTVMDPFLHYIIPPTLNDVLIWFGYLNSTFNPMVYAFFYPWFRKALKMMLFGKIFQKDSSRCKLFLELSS

[5] = biological target: T4, 348 GPCRs (Homo sapiens, UniProt P43116); settings: 10µM, Favipiravir 100μM
T4 construct: expressed in transfected cells; host or cells: HEK293A

[6] = biological target: T5, 348 GPCRs (Homo sapiens, UniProt Q99677); settings: LPAR4 (lysophosphatidic acid receptor 4); 10µM, Favipiravir 100μM
T5 construct: expressed in transfected cells; host or cells: HEK293A

[7] = tested on: 348 GPCRs
[8] = biological target: T6, 348 GPCRs (Homo sapiens, UniProt P28335); settings: 10µM, Favipiravir 100μM
T6 sequence (P28335 33-458): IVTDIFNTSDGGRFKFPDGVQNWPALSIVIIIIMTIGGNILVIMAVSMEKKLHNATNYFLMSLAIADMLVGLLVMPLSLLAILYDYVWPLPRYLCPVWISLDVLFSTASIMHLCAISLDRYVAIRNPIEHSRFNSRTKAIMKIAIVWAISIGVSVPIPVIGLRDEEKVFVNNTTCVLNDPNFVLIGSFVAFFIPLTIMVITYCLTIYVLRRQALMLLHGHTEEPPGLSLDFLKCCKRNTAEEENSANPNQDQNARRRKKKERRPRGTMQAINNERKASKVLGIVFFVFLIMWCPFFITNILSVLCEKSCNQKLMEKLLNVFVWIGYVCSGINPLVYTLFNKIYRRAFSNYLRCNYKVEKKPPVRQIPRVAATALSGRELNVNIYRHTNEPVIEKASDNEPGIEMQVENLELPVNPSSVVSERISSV

[9] = biological target: T7, 348 GPCRs (Homo sapiens, UniProt Q16538); settings: 10µM, Favipiravir 100μM
T7 construct: expressed in transfected cells; host or cells: HEK293A

[10] = biological target: T8, 348 GPCRs (Homo sapiens, UniProt P21452); settings: 10µM, Favipiravir 100μM
T8 construct: expressed in transfected cells; host or cells: HEK293A
T8 sequence (P21452 1-398): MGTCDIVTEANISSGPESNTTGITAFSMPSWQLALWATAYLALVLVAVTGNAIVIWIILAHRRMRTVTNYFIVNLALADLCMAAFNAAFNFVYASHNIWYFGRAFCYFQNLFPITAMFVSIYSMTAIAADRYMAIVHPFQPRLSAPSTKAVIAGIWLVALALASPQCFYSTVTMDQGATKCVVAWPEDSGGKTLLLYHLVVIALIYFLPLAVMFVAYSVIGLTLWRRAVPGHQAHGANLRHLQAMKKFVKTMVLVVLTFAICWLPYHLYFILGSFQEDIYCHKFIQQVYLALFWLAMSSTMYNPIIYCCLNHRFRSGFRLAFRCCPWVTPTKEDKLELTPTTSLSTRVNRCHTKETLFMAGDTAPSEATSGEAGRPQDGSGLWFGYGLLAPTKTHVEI

[11] = TAAR6 (trace amine associated receptor 6), read-out: % GPCR activation compared to TPA
[12] = H2 (histamine receptor H2), read-out: % GPCR activation compared to TPA
[13] = GPCR CXCR2 (C-X-C motif chemokine receptor 2), read-out: % GPCR activation compared to TPA
[14] = TA1 (trace amine associated receptor 1), read-out: % GPCR activation compared to TPA
[15] = EP2 (prostaglandin E receptor 2), read-out: % GPCR activation compared to TPA
[16] = EP3 iso6 (prostaglandin E receptor 3 iso6), 10µM, Favipiravir 100μM
[17] = GPCR GPR68 long (G protein-coupled receptor 68 long), 10µM
[18] = GPCR LTB4R2B (leukotriene B4 receptor 2), 10µM
[19] = GPCR P2Y13 short (purinergic receptor P2Y, G-protein coupled, 13 short), 10µM
[20] = GPR17 short (G protein-coupled receptor 17 short), 10µM, Favipiravir 100μM
[21] = 5-HT2C (5-hydroxytryptamine receptor 2C), read-out: % GPCR activation compared to TPA
[22] = GPR162 (G Protein-Coupled Receptor 162), read-out: % GPCR activation compared to TPA
[23] = NK2 (tachykinin receptor 2), read-out: % GPCR activation compared to TPA
[24] = read-out: % GPCR activation compared to TPA, TAAR6 (trace amine associated receptor 6)
[25] = read-out: % GPCR activation compared to TPA, H2 (histamine receptor H2)
[26] = read-out: % GPCR activation compared to TPA, GPCR CXCR2 (C-X-C motif chemokine receptor 2)
[27] = read-out: % GPCR activation compared to TPA, TA1 (trace amine associated receptor 1)
[28] = read-out: % GPCR activation compared to TPA, EP2 (prostaglandin E receptor 2)
[29] = read-out: % GPCR activation compared to TPA, 5-HT2C (5-hydroxytryptamine receptor 2C)
[30] = read-out: % GPCR activation compared to TPA, GPR162 (G Protein-Coupled Receptor 162)
[31] = read-out: % GPCR activation compared to TPA, NK2 (tachykinin receptor 2)

T4 sequence (P43116 whole entry): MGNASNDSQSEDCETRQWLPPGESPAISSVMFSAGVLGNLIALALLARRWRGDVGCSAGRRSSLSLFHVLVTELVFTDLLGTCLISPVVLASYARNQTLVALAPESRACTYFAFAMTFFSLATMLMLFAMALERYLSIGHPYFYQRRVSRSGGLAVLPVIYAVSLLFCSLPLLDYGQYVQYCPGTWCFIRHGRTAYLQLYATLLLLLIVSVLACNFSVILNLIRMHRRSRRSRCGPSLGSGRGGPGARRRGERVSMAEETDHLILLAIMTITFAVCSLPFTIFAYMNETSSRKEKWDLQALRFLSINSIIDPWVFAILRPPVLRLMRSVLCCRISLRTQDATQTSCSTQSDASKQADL
T5 sequence (Q99677 whole entry): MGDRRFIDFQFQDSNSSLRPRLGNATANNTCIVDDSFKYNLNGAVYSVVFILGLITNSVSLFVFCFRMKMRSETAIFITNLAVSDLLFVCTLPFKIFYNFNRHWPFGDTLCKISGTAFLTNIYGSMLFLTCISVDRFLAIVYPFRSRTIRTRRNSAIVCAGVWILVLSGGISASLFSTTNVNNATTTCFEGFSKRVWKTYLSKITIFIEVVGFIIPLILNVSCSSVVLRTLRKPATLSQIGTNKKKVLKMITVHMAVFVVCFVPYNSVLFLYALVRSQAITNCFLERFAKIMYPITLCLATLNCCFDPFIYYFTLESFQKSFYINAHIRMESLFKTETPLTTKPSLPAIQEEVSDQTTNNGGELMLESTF
T7 sequence (Q16538 whole entry): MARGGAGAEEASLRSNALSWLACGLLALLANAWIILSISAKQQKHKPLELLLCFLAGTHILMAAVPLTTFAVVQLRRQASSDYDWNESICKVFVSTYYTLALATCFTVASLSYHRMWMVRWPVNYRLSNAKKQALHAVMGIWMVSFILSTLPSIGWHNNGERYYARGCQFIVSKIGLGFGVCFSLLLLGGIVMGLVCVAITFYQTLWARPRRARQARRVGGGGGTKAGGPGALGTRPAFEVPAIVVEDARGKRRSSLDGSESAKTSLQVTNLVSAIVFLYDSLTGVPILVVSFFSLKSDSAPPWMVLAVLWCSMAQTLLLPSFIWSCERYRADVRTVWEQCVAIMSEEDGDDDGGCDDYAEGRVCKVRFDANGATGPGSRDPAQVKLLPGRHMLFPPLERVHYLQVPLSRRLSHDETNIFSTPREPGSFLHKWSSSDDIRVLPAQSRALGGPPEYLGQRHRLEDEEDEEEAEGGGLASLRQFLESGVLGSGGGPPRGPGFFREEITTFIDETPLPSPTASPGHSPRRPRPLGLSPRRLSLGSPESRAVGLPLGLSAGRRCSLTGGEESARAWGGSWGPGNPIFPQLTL
Chain of 348 GPCRs (Homo sapiens, UniProt P25021) (P25021 whole entry): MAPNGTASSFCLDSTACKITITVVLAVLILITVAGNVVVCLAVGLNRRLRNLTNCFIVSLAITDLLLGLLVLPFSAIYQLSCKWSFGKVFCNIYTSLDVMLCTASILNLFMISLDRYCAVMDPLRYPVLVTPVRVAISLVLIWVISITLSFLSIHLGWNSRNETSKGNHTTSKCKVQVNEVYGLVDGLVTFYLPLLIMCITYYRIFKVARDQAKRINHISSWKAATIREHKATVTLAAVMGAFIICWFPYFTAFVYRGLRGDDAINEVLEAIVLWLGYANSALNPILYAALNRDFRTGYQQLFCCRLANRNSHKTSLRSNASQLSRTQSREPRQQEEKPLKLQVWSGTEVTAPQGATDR

Row | Compound | activation at 100 µM [1, 11] | activation at 10 µM [2, 12] | activation at 10 µM [3, 13] | activation at 100 µM [4, 14] | activation at 10 µM [5, 15] | % GPCR activation compared to TPA [6] | % GPCR activation compared to TPA [7, 16] | % GPCR activation compared to TPA [7, 17] | % GPCR activation compared to TPA [7, 18] | % GPCR activation compared to TPA [7, 19] | % GPCR activation compared to TPA [7, 20] | activation at 100 µM [8, 21] | activation at 10 µM [9, 22] | activation at 10 µM [10, 23] | activation at 100 µM [1, 24] | activation at 10 µM [2, 25] | activation at 10 µM [3, 26] | activation at 100 µM [4, 27] | activation at 10 µM [5, 28] | activation at 100 µM [8, 29] | also measured
1 | CC(C)C(=O)OC[C@H]1O[C@@H](n2ccc(NO)nc2=O)[C@H](O)[C@@H]1O [molnupiravir] | -2.31% | -0.335% | 0.926% | -2.64% | -0.705% | -0.2125% | -0.792% | -159.537% | -0.2056% | -3.484% | 0.1735% | -2.97% | -1.64% | -2.23% |  |  |  |  |  |  | 
2 | CC(C)OC(=O)[C@H](C)N[P@](=O)(OC[C@H]1O[C@@H](n2ccc(=O)[nH]c2=O)[C@](C)(F)[C@@H]1O)Oc1ccccc1 [sofosbuvir] |  |  |  |  |  | 3.133% | -2.666% | -162.099% | 1.863% | -2.679% | 1.814% |  |  |  | -3.52% | -0.476% | -1.43% | -1.12% | -1.21% | -0.973% | activation at 10 µM [9, 30]: 0.48%; activation at 10 µM [10, 31]: -3.34%
3 | N#C[C@@]1(c2ccc3c(N)ncnn23)O[C@H](CO)[C@@H](O)[C@H]1O [GS441524] | -1.31% | -1.14% | 0.398% | -1.3% | -0.304% | 1.193% | -0.4587% | 3.274% | -0.1822% | 0.9471% | 2.36% | 0.017% | -0.758% | 0.00909% |  |  |  |  |  |  | 
4 | NC(=O)c1nc(F)cnc1O [favipiravir, 6-fluoro-3-hydroxy-2-pyrazinecarboxamide] | -1.51% | 0.663% |  | -2.98% | 0.965% | -0.5456% | 0.2801% |  |  |  | -0.5013% | 3.15% | -1.13% | 1.15% |  |  |  |  |  |  | activation at 100 µM ([3]; GPCR CXCR2 (C-X-C motif chemokine receptor 2), 100μM, read-out: % GPCR activation compared to TPA): -0.272%; % GPCR activation compared to TPA ([7]; GPCR GPR68 long (G protein-coupled receptor 68 long), 100μM): 5.02%; % GPCR activation compared to TPA ([7]; GPCR LTB4R2B (leukotriene B4 receptor 2), 100μM): -0.02753%; % GPCR activation compared to TPA ([7]; GPCR P2Y13 short (purinergic receptor P2Y, G-protein coupled, 13 short), 100μM): 1.698%
5 | CCC(CC)COC(=O)[C@H](C)N[P@](=O)(OC[C@H]1O[C@@](C#N)(c2ccc3c(N)ncnn23)[C@H](O)[C@@H]1O)Oc1ccccc1 [remdesivir] |  |  |  |  |  | -0.0834% | 1.469% | -2.927% | -0.9744% | 2.55% | 2.96% |  |  |  | -0.419% | 2.05% | 2.41% | -1.76% | 1.83% | -0.0017% | GPCR activation in screening against 348 GPCRs ([7]; 10 μM remdesivir, molnupiravir, 100 μM favipiravir, chimeric Gα): selectively activate UTS2R; also recorded: selective activator for the urotensin-II receptor (UTS2R); effect on adenosine receptors ([7]; GPCR assay, adenosine receptors): no effect on adenosine receptors; activation at 10 µM [9, 30]: 2.55%; activation at 10 µM [10, 31]: 1.32%
